PMC7033200, “Annexin A1 accounts for an anti-inflammatory binding target of sesamin metabolites” (NPJ Science of Food, 2020)

How the values were obtained:
[1] = target: T1, ANX A1 (Homo sapiens, UniProt P04083); assay: Isothermal titration calorimetry (ITC) binding to ANX A1; conditions: for dH / dS: 3 mmol L^-1 Ca^2+; for Kd: Ca^2+ form of ANX A1, 3 mmol L^-1 CaCl2, ITC, 298 K, read-out: binding affinity (Kd)
T1 construct: The ANX A1 cDNA fragment, full-length (1–346 a.a.) or deletion mutants; GST (pGEX-6P-1) (N, cleaved yes); made in house; host or cells: Escherichia coli BL21 (DE3)
T1 sequence (P04083 1-346): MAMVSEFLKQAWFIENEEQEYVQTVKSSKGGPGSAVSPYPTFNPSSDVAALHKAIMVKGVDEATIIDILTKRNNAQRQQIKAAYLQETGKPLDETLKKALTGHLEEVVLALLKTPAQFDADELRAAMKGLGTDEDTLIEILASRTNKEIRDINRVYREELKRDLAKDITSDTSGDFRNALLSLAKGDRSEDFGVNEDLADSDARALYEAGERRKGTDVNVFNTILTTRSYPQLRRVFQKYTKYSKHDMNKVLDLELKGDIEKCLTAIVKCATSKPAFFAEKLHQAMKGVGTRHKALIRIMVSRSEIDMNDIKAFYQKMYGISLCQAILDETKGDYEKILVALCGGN
Experimental: (§1) ITC experiments were performed at 298 K with ITC buffer (20 mmol L^−1 Tris-HCl (pH 7.5), 100 mmol L^−1 NaCl, 2% dimethyl sulfoxide) using a MicroCal iTC200 (Malvern). SC1 or SC2 were dissolved at 2 mmol L^−1 with ITC buffer and titrated into 1 μmol L^−1 of ANX A1 protein with or without 2 mmol L^−1 EDTA (for apo-ANX A1) or 3 mmol L^−1 CaCl2 (for Ca^2+-bound ANX A1). The titration was performed by injecting 2 µL of the syringe solution at intervals of 120 s. The binding isotherms were analysed using SEDPHAT.[54]

[2] = tested on: ANX A1 mutants (G210W, F221S, and V251W); assay: ITC binding analysis using recombinant ANX A1 point mutants; design: species or system human; conditions: V251W in contrast with ANX A1 WT
Experimental: as §1
Supplementary Fi g u re 3. Isothermal titra tion calori met ry analyses using ANX A1 […]
Analyses of binding affinity between SC1 and ANX A1 (wild type (WT) or point mutants (G210W, F221S, or V251W)) using isothermal titration calorimetry ( ITC). […]
(1 picture or pasted object on this page, not shown here)

[3] = tested on: T2, recombinant ANX V; assay: Affinity nanobeads binding assay with recombinant annexin V
T2 construct: purchased Abcam

[4] = tested on: TNFα production in U937 cells; assay: TNFα production in PMA/LPS-stimulated U937 cells (ELISA); format: cell-based, human; conditions: for IC50: Homo sapiens, U-937, PMA-differentiated U937 cells, LPS, 12 h, ELISA; for inhibition of TNFα production induced by LPS and PMA: U937 cells, dose-dependent
Experimental: (§2) For enzyme-linked immunosorbent assay (ELISA) assays, U937 cells (control or ANX A1 KD) were seeded on 96-well plates and stimulated by adding 100 nmol L^−1 phorbol myristate acetate (Sigma-Aldrich, MO, USA) for 24 h. The cells were treated for 12 h with LPS (100 ng mL^−1) with or without adding the indicated sesamin, SC1, or SC2 and/or PD98059 concentrations. The cell culture supernatants were collected, and TNFα or ANX A1 production was measured using ELISA (TNFα: R&D Systems; ANX A1: USCN, Wuhan, China) according to the manufacturer’s instructions.

[5] = tested on: TNFα production in ANX A1 KD U937 cells; assay: TNFα production in ANX A1 knockdown U937 cells (ELISA); format: cell-based, human; conditions: U937 cells with knocked down ANX A1
Experimental: U937 cells were maintained in RPMI-1640 medium (Gibco/Thermo Fisher Scientific, MA, USA) supplemented with 10% fetal bovine serum. To generate a stable ANX A1-KD cell line, lentivirus vectors encoding a control or shRNA sequence targeting ANX A1 (Supplementary Methods) were transfected into 293FT cells. The lentivirus was prepared according to the manufacturer’s instructions (Invitrogen, MA, USA). U937 cells were infected with the lentivirus, and a stable cell line was selected by maintaining the cells in medium containing 10 μg mL^−1 blasticidin (Invitrogen) for 1 week.
as §2

[6] = tested on: phosphorylated (Ser27) ANX A1 in U937 cells; assay: ANX A1 Ser27 phosphorylation in U937 cells (western blotting); format: cell-based, human
Experimental: For analyses of ANX A1 phosphorylation, the U937 cells treated as above were lysed with NP40 lysis buffer (20 mmol L^−1 Tris-HCl (pH 7.5), 150 mmol L^−1 NaCl, 1% NP40), and the lysates (10 μg) were subjected to SDS-PAGE, followed by western blotting using antibodies against ANX A1 or phosphorylated (Ser27) ANX A1 (dilution: 1:1000).

[7] = tested on: extracellular ANX A1 release from U937 cells; assay: Extracellular release of ANX A1 from U937 cells (ELISA); format: cell-based, human; conditions: for cellular release of ANX A1: PMA/LPS-treated U937 cells
Experimental: as §2

[8] = tested on: CCl4-treated WT mice; assay: CCl4-induced liver damage and inflammation in WT mice; format: in vivo, mouse (C57BL/6J)
Source text: (§3) All protocols for animal procedures were approved by the Ethics Committee of Animal Experiments in accordance with the Internal Regulations on Animal Experiments at Keio University and Suntory Holdings Ltd, which are based on the Law for the Humane Treatment and Management of Animals (Law No. 105, 1 October 1973, as amended on 30 May 2014). Male C57BL/6J wild-type (WT) mice were purchased from CLEA Japan Inc. (Tokyo, Japan). WT and ANX A1-KO mice at 7 to 9 weeks of age received an intraperitoneal injection of vehicle (corn oil, 16.7 mL kg^−1) or CCl4 (50 μL kg^−1). To evaluate the effect of sesamin, vehicle (olive oil, 5 mL kg^−1) or sesamin (25 mg kg^−1) was orally administered twice at 1 h before and 7 h after CCl4 injection. To evaluate the effect of SC1, vehicle (ethanol dissolved in corn oil at a ratio of 1:19, 5 mL kg^−1) or SC1 (50 mg kg^−1) was intraperitoneally administered twice as mentioned above. Mice were euthanized after 12 or 24 h […] CCl4 injection before collecting blood and liver samples. Plasma AST, ALT, or LDH were measured using L-type AST J2, L-type ALT J2 or L-type LD J (Wako, Osaka, Japan), respectively. The liver tissues were fixed with 10% formalin, embedded in paraffin sectioned to 3–4 μm thickness and mounted on slides. Liver sections were de-paraffinized with xylene and re-hydrated with alcohols. The staining was performed with eosin solution for the cytoplasm and Mayer’s haematoxylin solution or monoclonal galectin-3 antibody (1:100, BioLegend, CA, USA). Slides were observed under a light microscope (BX52, Olympus, Japan), and images were analysed using LUMINA VISION (Mitani Corporation, Japan).
(§4) Production of TNFα or MCP-1 in the plasma or liver was measured using a V-PLEX Proinflammatory Panel 1 Mouse Kit or U-PLEX Mouse MCP-1 assay Kit (Meso Scale Diagnostics, USA), respectively. Plasma or liver tissues homogenised in phosphate-buffered saline (Nacalai Tesque) were applied into the pre-coated plate with antibodies against target proteins before labelling with secondary antibodies conjugated to chemiluminescence. The signal intensity was measured using an analyser (SECTOR Imager 6000, Meso Scale Diagnostics, USA).
(§5) Total RNA of the liver was extracted using an RNeasy Mini Kit (Qiagen, USA), and the cDNAs were prepared using High-Capacity cDNA Reverse Transcription Kits (Thermo Fisher Scientific, USA). Quantitative reverse transcription-PCR was performed according to the manufacturer’s instructions using the TaqMan® Gene Expression Assay System (Applied Biosystems, USA) with a 7900HT Fast Real Time PCR System (Applied Biosystems, USA). The levels of target mRNAs were normalised using the expression of the 18S ribosomal RNA. The primer IDs are listed in Supplementary Table 1.

[9] = tested on: CCl4-treated ANX A1-KO mice; assay: CCl4-induced liver damage and inflammation in ANX A1-KO mice; format: in vivo, mouse (C57BL/6J)
Source text: ANX A1-deficient mice (C57BL/6J) were generated by homologous recombination at Trans Genic Inc. (Fukuoka, Japan), as shown in Fig. S4. The vector targeting ANX A1 for deleting the coding region (exons 3–6) containing selectable neomycin-resistance (Neo) and PGK promoter genes was used. The targeting vector contained the 3.0 kbp of the 5′ arm flanking sequence and 4.5 kbp of the 3′ arm flanking sequence. The PGK-Neor gene was deleted by crossing with the CAG-flp mouse.[58]
as §3, §4, §5

[10] = SC1 50 mg kg^−1 intraperitoneally twice, 12 h after CCl4, WT
[11] = SC1 50 mg kg^−1 intraperitoneally twice, 24 h, WT
[12] = SC1 50 mg kg^−1 intraperitoneally twice, 12 h after CCl4, ANX A1-null
[13] = sesamin 25 mg kg^−1 twice, 12 h, qPCR, WT
[14] = sesamin 25 mg kg^−1 twice, 12 h after CCl4, WT
[15] = sesamin 25 mg kg^−1 twice, 24 h, qPCR, WT
[16] = sesamin 25 mg kg^−1 orally twice, 24 h, ANX A1-null
[17] = sesamin 25 mg kg^−1 twice, 12 h, qPCR, ANX A1-null
[18] = sesamin 25 mg kg^−1 twice, 12 h after CCl4, ANX A1-null
[19] = sesamin 25 mg kg^−1 twice, 24 h, qPCR, ANX A1-null

## Oc1ccc(C2OCC3C(c4ccc5c(c4)OCO5)OCC23)cc1O (stereo not drawn) [SC1, (7α,7′α,8α,8′α)-3′,4′-methylenedioxy-7,9′:7′,9-diepoxylignane-3,4-diol]
[1]; ITC
  dH: -1891.6 kJ/mol
  dS: -1491.41 cal/mol K
[1]
  Kd: 2.77 µM
[1]; Ca^2+ free (EDTA), ITC
  binding to apo-ANX A1: No binding
[2]
  binding activity to SC1 of ANX A1 mutants: disrupted the binding activity
[3]
  binding of recombinant ANX V to beads: no binding
[4]
  IC50: 2.2 µM
  inhibition of TNFα production induced by LPS and PMA: significantly inhibited
[5]
  inhibitory effects on TNFα production in ANX A1 knockdown cells: disappeared
[6]; after PMA and LPS treatment, dose-dependent, 12 h
  ANX A1 phosphorylation at Ser27: significantly induced phosphorylation
[6]; without PMA and LPS stimulation
  ANX A1 phosphorylation at Ser27: not observed
[7]
  cellular release of ANX A1: significantly enhanced
[8]; [10]
  MCP-1 expression in the liver: suppressed
  TNFα expression in the liver: suppressed
[8]; [11]
  plasma ALT: suppressed
  plasma AST: suppressed
  plasma LDH: suppressed
[9]; [12]
  MCP-1 expression in the liver: no effect was observed
  TNFα expression in the liver: no effect was observed
[9]; SC1 50 mg kg^−1 intraperitoneally twice, 24 h, ANX A1-null
  plasma AST: not

## Oc1ccc(C2OCC3C(c4ccc(O)c(O)c4)OCC23)cc1O (stereo not drawn) [SC2, (7α,7′α,8α,8′α)-7,9′:7′,9-diepoxylignane-3,3′,4,4′-tetraol]
[1]; ITC
  dH: -1289.3 kJ/mol
  dS: -1010.16 cal/mol K
[1]
  Kd: 8.05 µM
[4]
  IC50: 10.3 µM
  inhibition of TNFα production induced by LPS and PMA: significantly inhibited
[5]
  inhibitory effects on TNFα production in ANX A1 knockdown cells: disappeared
[7]
  cellular release of ANX A1: significantly enhanced

## c1cc2c(cc1[C@H]1OC[C@H]3[C@@H]1CO[C@@H]3c1ccc3c(c1)OCO3)OCO2 [Sesamin, (7α,7′α,8α,8′α)-3,4:3′,4′-bis(methylenedioxy)-7,9′:7′,9-diepoxylignane]
[1]; ITC
  binding activity with ANX A1 using ITC analysis: unable to detect any binding activity
[4]
  inhibition of TNFα production induced by LPS and PMA: little inhibitory effect
[7]
  cellular release of ANX A1: not
[8]; sesamin 25 mg kg^−1 orally twice (1 h before, 7 h after CCl4), 24 h, WT
  plasma ALT: significantly suppressed
[8]; sesamin 25 mg kg^−1 orally twice, 24 h, WT
  plasma LDH: significantly suppressed
[8]; sesamin 25 mg kg^−1 orally twice, H&E, WT
  liver injury around the central vein (histology): suppressed liver injury
[8]; [13]
  MCP-1 mRNA expression in the liver: significantly suppressed
  TNFα mRNA expression in the liver: significantly suppressed
  galectin-3 mRNA expression in the liver: significantly suppressed
[8]; [14]
  MCP-1 protein in the liver: significantly suppressed
  MCP-1 protein in the plasma: significantly suppressed
  TNFα protein in the liver: significantly suppressed
  TNFα protein in the plasma: significantly suppressed
[8]; sesamin 25 mg kg^−1 twice, 24 h, histology, WT
  accumulation of galectin-3-positive cells in the liver: suppressed
[8]; [15]
  liver mRNA expression of Col1a1: suppressed
  liver mRNA expression of αSMA: suppressed
[9]; [16]
  plasma ALT: not observed
  plasma LDH: not observed
[9]; sesamin 25 mg kg^−1 orally twice, H&E, ANX A1-null
  liver injury around the central vein (histology): not
[9]; [17]
  MCP-1 mRNA expression in the liver: not observed
  TNFα mRNA expression in the liver: not observed
  galectin-3 mRNA expression in the liver: not observed
[9]; [18]
  MCP-1 protein in the plasma: not
  TNFα protein in the liver: not
  TNFα protein in the plasma: not
[9]; sesamin 25 mg kg^−1 twice, 24 h, histology, ANX A1-null
  accumulation of galectin-3-positive cells in the liver: not
[9]; [19]
  liver mRNA expression of Col1a1: not
  liver mRNA expression of αSMA: not

## COc1cccc(-c2cc(=O)c3ccccc3o2)c1N [PD98059, reference compound]
[6]; treated 1 h prior to LPS treatment
  effect on SC1-induced phosphorylation of ANX A1: suppressed
[7]; treated 1 h prior to LPS, dose-dependent
  effect on up-regulation of ANX A1 release: inhibited
